Our source for the k and binding values is publication PMC12448892 (2025).

Assay [1] concerns ADH1 4_G MUT (DNA, G4) GTGGCCGGTAGCGAGTGATAGCGAGTGAAAGACGATCGCTATCGTGCCGTAAGGAGGAAATGTGAGGTTGGGGG
Nature of the assay: ThT fluorescence titration. The conditions noted are these: 10 mM KCl; 10 mM Tris pH 7.5, room temperature; 0.5 μM ThT; apparent.

Assay [2] has as its system ADH1 5_G MUT (DNA, G4) GTGGCCGGTAGCGAGTGATAGCGAGTGAAAGACGATCGCTATCGTGCCGTAACGAGGAAATGTGAGGTTGGGGG
Briefly: ThT fluorescence titration. The conditions noted are these: 10 mM KCl; 10 mM Tris pH 7.5, room temperature; 0.5 μM ThT; apparent.

Assay [3] concerns ADH1 WT (DNA, G4) GGGGCCGGTAGCGAGTGATAGCGAGGGAAAGACGATCGCTATCGGGCCGTAAGGAGGAAATGGGAGGTTGGGGG
Briefly: ThT fluorescence titration. The conditions noted are these: 10 mM KCl; 10 mM Tris pH 7.5, room temperature; 0.5 μM ThT; apparent.

The subject of assay [4] is ADH1 4_G MUT (DNA, G4) GTGGCCGGTAGCGAGTGATAGCGAGTGAAAGACGATCGCTATCGTGCCGTAAGGAGGAAATGTGAGGTTGGGGG
Nature of the assay: circular dichroism. The conditions noted are these: 100 mM KCl; 10 mM Tris pH 7.5, 25 °C; 5 μM DNA, 10 μM PhenDC3; slight broadening of spectra. On the technique in general: CD spectra are sensitive to the conformation of chiral molecules.

Assay [5] deals with ADH1 5_G MUT (DNA, G4) GTGGCCGGTAGCGAGTGATAGCGAGTGAAAGACGATCGCTATCGTGCCGTAACGAGGAAATGTGAGGTTGGGGG
Briefly: circular dichroism. The conditions noted are these: 100 mM KCl; 10 mM Tris pH 7.5, 25 °C; 5 μM DNA, 10 μM PhenDC3; slight broadening of spectra.

Assay [6] deals with ADH1 WT (DNA, G4) GGGGCCGGTAGCGAGTGATAGCGAGGGAAAGACGATCGCTATCGGGCCGTAAGGAGGAAATGGGAGGTTGGGGG
Briefly: circular dichroism. The conditions noted are these: 100 mM KCl; 10 mM Tris pH 7.5, 25 °C; 5 μM DNA, 10 μM PhenDC3; slight broadening of spectra.

In the case of `Cc1ccc2c(c1)sc(-c1ccc(N(C)C)cc1)[n+]2C`, the figures for the k in assay [1], in assay [2] and in assay [3] were 0.76 ± 0.06 µM, 0.89 ± 0.13 µM and 0.65 ± 0.04 µM, respectively.

With `C[n+]1cc(NC(=O)c2ccc3ccc4ccc(C(=O)Nc5cc6ccccc6[n+](C)c5)nc4c3n2)cc2ccccc21`, the binding entry in assay [4], in assay [5] and in assay [6] was “yes” each time.
